{"source": "patent US7253295B2", "about": "“Chloride channel opener” (Sucampo AG, priority 2001, dated 2007)", "key": {"[1]": {"tested_on": "Chloride Ion Transport into Intestinal Fluid", "test": "Chloride ion transport into intestinal fluid of rats (Test Example 6)", "format": "in vivo, male Wistar rats", "settings": "for Chloride Ion Concentration in Intestinal Fluid, Mean ± S.E.: 30 minutes after administration", "experimental": "Compound 1 (13,14-dihydro-15-keto-16,16-difluoro-prostaglandin E1) of 1, 10 or 100 μg/kg in the volume of 5 mL/kg was orally administered to male Wistar rats (six weeks old, weight:180-210 g) that had been fasted for at least 16 hours. The control group received the same volume of vehicle (distilled water containing 0.5% ethanol and 0.01% polysorbate 80). Thirty minutes after the administration, the animals were subjected to laparotomy under ether anesthesia. The top portion of the duodenum and the end portion of the ileum were ligated respectively, and the bowel was extirpated. The intestinal fluid of each animal was collected and centrifuged by 10,000×g for 5 minutes. Supernatant was collected, and the concentration of chloride ion in the supernatant of intestinal fluid was measured with a chloride counter (CL-7, Hiranuma Sangyo Co., Ltd.). Dunnett's test was used in the comparison of the control group and the groups receiving Compound 1 in each dose. P values less than 0.05 were considered to be statistically significant."}, "CFBE41o- cells": {"tested_on": "CFBE41o- cells", "test": "Short-circuit current in CFBE41o- cells (Test Example 2)", "format": "cell-based, Human", "settings": "1 μM, 1% DMSO", "experimental": "16HBE14o- cells, a Human airway cell line derived from a healthy individual, which contain ClC-2 and the Cystic Fibrosis Transmembrane Regulator, Cl channel (CFTR); and CFBE41o- cells, a Human airway cell line derived from cystic fibrosis patients, which contain functional form of ClC-2 and defective form of CFTR (ΔF508 CFTR) were used. Both cells were cultured in MEM supplemented with 10% FBS (Hyclone), […] 1-glutamine and penicillin/streptomycin in flasks coated with fibronectin/collagen/BSA. When desired, the cells were plated on 0.3 cm^2 collagen-coated permeable filters (Biocoat). After 24 hrs, the apical medium was removed so that the cells were grown in air-water interface. While they were grown in air-water interface, the basolateral side of the cells was fed with the medium and the medium was changed every other day. The cells were allowed to grow to confluence.\nShort-circuit current measurements were used to evaluate Cl transport in polarized, confluent cultures of the cells grown in air-water interface. A plexiglass chamber for short-circuit current measurements in confluent cell monolayers grown on the 0.3 cm^2 permeable support filters was used (World Precision Instruments, Sarasota, Fla.). Electrical measurements were made with a 7402C voltage clamp device (Bioengineering Department, Iowa University). […]"}, "[2]": {"tested_on": "Chloride Ion Transport into Lacrimal Fluid", "test": "Chloride ion transport into lacrimal fluid in rabbits (Test Example 8)", "format": "in vivo, male white rabbits", "experimental": "Physiological saline, eye drops vehicle, or eye drops containing 0.0001% or 0.001% of Compound 1 was instilled to male white rabbits in the volume of 30 μL/eye. […] The collected lacrimal fluid was diluted five fold with distilled water, and the concentration of chloride ions was measured with a chloride counter (CL-7, Hiranuma Sangyo Co. Ltd.). Student's t-test and Wilcoxon's test were used in the comparison of the control group and the groups receiving Compound 1 in each dose. P values less than 0.05 were considered to be statistically significant."}, "[3]": {"tested_on": "Chloride Ion Transport into Bile", "test": "Chloride ion transport into bile in rats (Test Example 7)", "format": "in vivo, male Wistar rats", "experimental": "Compound 2 (13,14-dihydro-15-keto-16,16- difluoro-18(S)-methyl-prostaglandin E1) of 100 μg/kg was orally administered to male Wistar rats (six weeks old, weight:180-210 g) three times a day for seven days. The control group (n=7) received the same volume of vehicle (distilled water containing 0.01% polysorbate 80 and 0.5% ethanol). In the following morning of the final administration day (about 17 hours after the final administration), a polyethylene catheter (PE10, Becton Dickinson and Company) was inserted in the rats' choledoch under ether anesthesia. The rats were placed into Borrmann's cages and were left for 1 hour to awake from anesthesia. Bile discharged in one hour, from one to two hours after the insertion of the catheter, was collected and the concentration of chloride ion in the bile was measured with a chloride counter (CL-7, Hiranuma Sangyo Co., Ltd.). Student's t-test was used in the comparison of the control group and the group receiving Compound 2. P values less than 0.05 were considered to be statistically significant."}}, "note": "“And” between values parts separate entries of the source, which are not always exact repeats. Equal values may be shown once.", "data": [{"molecule": "CCCCC(F)(F)[C@@]1(O)CC[C@H]2[C@@H](CC(=O)[C@@H]2CCCCCCC(=O)O)O1", "note": "[Compound 1, (−)-7-[(2R,4aR,5R,7aR)-2-(1,1-difluoropentyl)-2-hydroxy-6-oxoperhydrocyclopenta[b]pyran-5-yl]heptanoic acid]", "values": [{"measurement": "Chloride Ion Concentration in Intestinal Fluid, Mean ± S.E.", "setting": "[1]; 1 μg/kg P.O.", "result": "82.2 ± 7.0", "unit": "mEq/L"}, {"measurement": "Chloride Ion Concentration in Intestinal Fluid, Mean ± S.E.", "setting": "[1]; 10 μg/kg P.O.", "result": "110.1 ± 5.6", "unit": "mEq/L"}, {"measurement": "Chloride Ion Concentration in Intestinal Fluid, Mean ± S.E.", "setting": "[1]; 100 μg/kg P.O.", "result": "126.6 ± 2.4", "unit": "mEq/L"}, {"measurement": "Effect on concentration of chloride ions in the bowel (in words)", "setting": "[1]; 1, 10 and 100 μg/kg P.O.", "result": "increased the concentration of chloride ions in the bowel in a dose-dependant manner"}, {"measurement": "Short-Circuit Current (change)", "setting": "CFBE41o- cells", "result": "5.0±0.04 μA/cm^2 and 5.0 ± 0.4 μA/cm^2"}, {"measurement": "Effect on concentration of chloride ions in the lacrimal fluid (in words)", "setting": "[2]; 0.0001% and 0.001% eye drops, compared with control group", "result": "increased the concentration of chloride ions in the lacrimal fluid in a dose-dependant manner"}, {"measurement": "Chloride Ion Concentration in lacrimal fluid, Mean ± S.E.", "setting": "[2]; 0.0001% eye drops, 30 μL/eye, Pre (0 hour)", "result": "136.7 ± 3.6", "unit": "mEq/L"}, {"measurement": "Chloride Ion Concentration in lacrimal fluid, Mean ± S.E.", "setting": "[2]; 0.0001% eye drops, 2 hr after instillation", "result": "123.4 ± 5.2", "unit": "mEq/L"}, {"measurement": "Chloride Ion Concentration in lacrimal fluid, Mean ± S.E.", "setting": "[2]; 0.0001% eye drops, 4 hr after instillation", "result": "136.8 ± 2.3", "unit": "mEq/L"}, {"measurement": "Chloride Ion Concentration in lacrimal fluid, Mean ± S.E.", "setting": "[2]; 0.0001% eye drops, 6 hr after instillation", "result": "136.8 ± 2.0", "unit": "mEq/L"}, {"measurement": "Chloride Ion Concentration in lacrimal fluid, Mean ± S.E.", "setting": "[2]; 0.0001% eye drops, 8 hr after instillation", "result": "140.8 ± 2.8", "unit": "mEq/L"}, {"measurement": "Chloride Ion Concentration in lacrimal fluid, Mean ± S.E.", "setting": "[2]; 0.001% eye drops, 30 μL/eye, Pre (0 hour)", "result": "135.4 ± 4.0", "unit": "mEq/L"}, {"measurement": "Chloride Ion Concentration in lacrimal fluid, Mean ± S.E.", "setting": "[2]; 0.001% eye drops, 2 hr after instillation", "result": "152.9 ± 7.7^[##] mEq/L"}, {"measurement": "Chloride Ion Concentration in lacrimal fluid, Mean ± S.E.", "setting": "[2]; 0.001% eye drops, 4 hr after instillation", "result": "151.4 ± 2.9", "unit": "mEq/L"}, {"measurement": "Chloride Ion Concentration in lacrimal fluid, Mean ± S.E.", "setting": "[2]; 0.001% eye drops, 6 hr after instillation", "result": "138.9 ± 3.3", "unit": "mEq/L"}, {"measurement": "Chloride Ion Concentration in lacrimal fluid, Mean ± S.E.", "setting": "[2]; 0.001% eye drops, 8 hr after instillation", "result": "138.8 ± 1.6", "unit": "mEq/L"}]}, {"molecule": "CC[C@H](C)CC(F)(F)C(=O)CC[C@H]1[C@H](O)CC(=O)[C@@H]1CCCCCCC(=O)O", "note": "[Compound 2, 13,14-dihydro-15-keto-16,16-difluoro-18(S)-Methyl-PGE1]", "values": [{"measurement": "Effect on concentration of chloride ions in the bile (in words)", "setting": "[3]; 100 μg/kg P.O. t.i.d. 7 days, compared with control group", "result": "increased significantly"}, {"measurement": "Chloride Ion Concentration in Bile, Mean ± S.E.", "setting": "[3]; 100 μg/kg P.O., t.i.d. for 7 days, about 17 hours after final administration", "result": "98.4 ± 1.8", "unit": "mEq/L"}]}]}
